# Experimental data reported in patent publication US20160095897A1 (priority 2013, published 2016).
# Read-outs that look alike come from different tables or passages of the source.
# Columns and labels:
# [1] = system: IAV A/PR/8/34; assay type: in vivo, mice; conditions: lethal dose
# [2] = system: IAV A/PR/8/34 (H1N1); assay type: in vivo; conditions: mice, IAV A/PR/8/34 (H1N1) 40 or 60% lethal doses, pepducin p4pal-10 10 μg
substance,measurement,setting,value
N-palmitoyl-SGRRYGHALR-NH2 (HELM PEPTIDE1{[CCCCCCCCCCCCCCCC(=O)[*:2]].S.G.R.R.Y.G.H.A.L.R.[am]}$$$$V2.0; SMILES CCCCCCCCCCCCCCCC(=O)N[C@@H](CO)C(=O)NCC(=O)N[C@@H](CCCNC(=N)N)C(=O)N[C@@H](CCCNC(=N)N)C(=O)N[C@@H](Cc1ccc(O)cc1)C(=O)NCC(=O)N[C@@H](Cc1c[nH]cn1)C(=O)N[C@@H](C)C(=O)N[C@@H](CC(C)C)C(=O)N[C@@H](CCCNC(=N)N)C(N)=O) [pepducin p4pal-10],IL1-β level in BAL,"[1]; day 3 post-inoculation, ELISA",not at day 3
same,IL-6 level in BAL,"[1]; day 3 post-inoculation, ELISA",not at day 3
same,MIP-2 level in BAL,"[1]; day 3 post-inoculation, ELISA",not at day 3
same,level of total proteins in BAL,[1]; day 6 post-inoculation,significantly reduced
same,IFN-γ level in BAL,"[1]; day 6 post-inoculation, ELISA",significantly reduced
same,IL1-β level in BAL,"[1]; day 6 post-inoculation, ELISA",significantly reduced
same,IL-6 level in BAL,"[1]; day 6 post-inoculation, ELISA",significantly reduced
same,MIP-2 level in BAL,"[1]; day 6 post-inoculation, ELISA",significantly reduced
same,KC level in BAL,[1]; treated vs not treated,similar
same,RANTES level in BAL,[1]; treated vs not treated,similar
same,death,[2],protected mice from weight loss and death
same,weight loss,[2],protected mice from weight loss
